Assay results from patent US6107064A, “Process for producing xanthine derivatives with bacteria and fungi” (Kyowa Hakko Kogyo Co., Ltd., priority 1994, dated 2000).
pKi: −log10 of the molar value.

Experiments:
adenosine A1 receptor = target: T1, adenosine A1 receptor (Rattus norvegicus, UniProt P25099); assay: Adenosine A1 Receptor Binding Test (3H-CHA binding, corpus striatum); settings: 3H-CHA 1.1 nM, 25° C., 90 minutes
T1 construct: from tissue; host or cells: rat corpus striatum, washed membrane suspension
T1 sequence (P25099 1-326): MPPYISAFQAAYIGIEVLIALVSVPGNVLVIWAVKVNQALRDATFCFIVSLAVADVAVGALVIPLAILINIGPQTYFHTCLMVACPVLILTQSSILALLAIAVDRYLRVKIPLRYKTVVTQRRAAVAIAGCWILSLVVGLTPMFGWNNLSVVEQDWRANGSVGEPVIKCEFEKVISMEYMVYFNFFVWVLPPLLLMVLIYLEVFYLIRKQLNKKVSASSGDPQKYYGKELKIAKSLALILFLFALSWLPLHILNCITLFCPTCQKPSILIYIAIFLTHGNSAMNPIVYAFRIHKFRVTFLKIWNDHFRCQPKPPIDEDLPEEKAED
Method: The test was conducted according to the method of Bruns et al. [Mol. Pharmacol., 29, 331 (1986)] with slight modification.
Corpus striatum of a rat was suspended in ice-cooled 50 mM Tris hydroxymethyl aminomethane hydrochloride (Tris HCl) buffer (pH 7.7) by using Polytron homogenizer (manufactured by Kinematicas Co.) The suspension was centrifuged (50,000×g, 10 minutes), and the precipitate was suspended again in the same amount of 50 mM Tris HCl buffer. The suspension was centrifuged under the same conditions, and the final precipitate was suspended once again in 50 mM Tris HCl buffer to give a tissue concentration of 100 mg (wet weight)/ml. The tissue suspension was allowed to stand at 37° C. for 30 minutes in the presence of 0.02 unit/mg tissue of adenosine deaminase (manufactured by Sigma Co.) The tissue suspension was centrifuged (50,000×g, 10 minutes) and to the obtained precipitates was added 50 mM Tris HCl buffer to give a tissue concentration of 10 mg (wet weight)/ml.
To 1 ml of the tissue suspension thus prepared were added 50 μl of cyclohexyladenosine labeled with tritium (^3 H-CHA: 27 Ci/mmol, manufactured by New England Nuclear) (final concentration: 1.1 nM) and 50 μl of a test compound. The resulting mixture was allowed to stand at 25° C. for 90 minutes and then rapidly filtered by suction through a glass fiber filter (GF/C, manufactured by Whatman Co.) The filter was immediately washed three times with 5 ml each of ice-cooled 50 mM Tris HCl buffer, and transferred to a vial, and a scintillator (EX-H, manufactured by Wako Pure Chemical Industries, Ltd.) was added thereto. The radioactivity on the filter was determined with a liquid scintillation counter (manufactured by Packard Instrument Co.)
The inhibition rate (Ki value) of the test compound against the binding of A1 receptors (^3 H-CHA binding) was calculated by the equation of Cheng-Prusoff. [formula] [Notes]1. "B" means the amount of radioactivity of ^3 H-CHA bound in the presence of a test compound at various concentrations.
2. "T" means the amount of radioactivity of ^3 H-CHA bound in the absence of a test compound.
3. "IN" means the amount of radioactivity of ^3 H-CHA bound in the presence of 10 μM N^6 -(L-2-phenylisopropyl)-adenosine (Sigma Co.)

Wistar rats = assay: Diuretic Effect; format: in vivo, rat (Wistar, male); settings: for Increase in amount of K+ excreted / Increase in amount of Na+ excreted / Increase in amount of urine: control 0
Method: The experiment was carried out by using Wistar rats (male; 150 to 300 g). The rats were starved for 18 hours prior to the administration of a test compound (n=4 to 5). After a test compound dissolved in 0.4% methanol, 1% dimethylsulfoxde, and 0.01N sodium hydroxide/physiological saline was administered intravenously to the rat, the physiological saline (25 ml/kg) was orally administered thereto. Alternatively, a test compound dissolved in the physiological saline (25 ml/kg) was orally administered to the rats. Urine was collected from the rats during 4 hours after the oral administration, and urine volume was measured by a graduated measuring cylinder, and the electrolytes (Na^+ and K^+) in the urine were determined by flame photometer (775A, manufactured by Hitachi, Ltd.) The test results are shown in Tables 3 and 4.

[1] = test system: Wistar rats, glycerol-induced renal insufficiency; assay: Renal-Protecting Activity (Glycerol-Induced Renal Insufficiency Model); format: in vivo, rat (Wistar, male); settings: for effect on increases in serum creatinine and serum urea-nitrogen: 10 mg/kg, ip
Method: Renal insufficiency is the condition that homeostasis of a body fluid is unable to be maintained by disorder of renal function. It is known that subcutaneous or intramuscular administration of glycerol to rats induces acute renal insufficiency characterized by renal tubular disturbance [Can. J. Physiol.
Male Wistar rats were fisted from both food and water for 18 hours. A test compound was intraperitoneally administered to the rats (dose; 0.1 ml/100 g). After 30 minutes, the rats were anesthetized with ether and the back skin was picked up and 0.8 ml/100 […] of 50% glycerol was subcutaneously administered. Twenty four hours after the glycerol injection, the rats were anesthetized with ether and 5 ml of blood was collected from the descending aorta. A sample of the collected blood was allowed to stand for 30 minutes or longer and then centrifuged at 3,000 rpm for 10 minutes to obtain the serum. Creatinine in the serum sample and urea nitrogen in the serum were determined with an autoanalyzer (AU510, Olympus Optical Co., Ltd.) using Olympus AU500/550 exclusive reagent "Katayama" in both of creatinine test (Jaffe' method) and urea-nitrogen test (enzyme method).

[2] = 0.1 mg/kg po, 4 hours, control 1.00
[3] = 1.6 mg/kg po, 4 hours, control 1.00
[4] = 1 mg/kg ip, 24 hours after glycerol, control 4.57 ± 0.31, ***p < 0.001 (Student's t test)
[5] = 1 mg/kg ip, 24 hours after glycerol, control 164.9 ± 10.3, ***p < 0.001 (Student's t test)
[6] = 0.01 mg/kg po, 4 hours, control 1.00

CCCn1c(=O)c2[nH]c([C@]34C[C@@H]5C[C@H](C3)[C@@H](O)[C@H]4C5)nc2n(CCC)c1=O (relative stereo) [Compound 2, 8-(trans-6-hydroxy-3-tricyclo[3.3.1.0^3,7]nonyl)-1,3-dipropylxanthine]
pKi (adenosine A1 receptor): 9.62
Increase in amount of K+ excreted (Wistar rats; 0.1 mg/kg po, 4 hours): 12%
Increase in amount of Na+ excreted (Wistar rats; 0.1 mg/kg po, 4 hours): 107%
Increase in amount of urine (Wistar rats; 0.1 mg/kg po, 4 hours): 134%
Na+/K+ (Wistar rats; [2]): 1.85
Increase in amount of K+ excreted (Wistar rats; 1.6 mg/kg po, 4 hours): 15%
Increase in amount of Na+ excreted (Wistar rats; 1.6 mg/kg po, 4 hours): 220%
Increase in amount of urine (Wistar rats; 1.6 mg/kg po, 4 hours): 297%
Na+/K+ (Wistar rats; [3]): 2.77
Amount of creatinine in serum [1, 4]: 1.88 ± 0.20 mg/dL
Amount of urea-nitrogen in serum [1, 5]: 58.0 ± 8.8 mg/dL

CCCn1c(=O)c2[nH]c([C@@]34C[C@H]5C[C@@H]3C[C@@H](C4)[C@@H]5O)nc2n(CCC)c1=O [Compound 1, 8-(Trans-9-hydroxy-3-tricyclo[3.3.1.0^3,7]nonyl)-1,3-dipropylxanthine]
pKi (adenosine A1 receptor): 9.64
Amount of K+ excreted (Wistar rats; 3 μg/kg iv, n = 5, 4 hours, control 1.47 ± 0.31): 1.24 ± 0.10 mEq/kg
Na+/K+ (Wistar rats; 3 μg/kg iv, n = 5, 4 hours, control 1.52): 2.99
Amount of Na+ excreted (Wistar rats; 3 μg/kg iv, n = 5, 4 hours, control 2.23 ± 0.61, **p < 0.01 (Dunnett's test)): 3.71 ± 0.12 mEq/kg
Amount of urine (Wistar rats; 3 μg/kg iv, n = 5, 4 hours, control 14.5 ± 1.8, *p < 0.05 (Dunnett's test)): 26.4 mL/kg
Increase in amount of K+ excreted (Wistar rats; 0.01 mg/kg po, 4 hours): 11%
Increase in amount of Na+ excreted (Wistar rats; 0.01 mg/kg po, 4 hours): 139%
Increase in amount of urine (Wistar rats; 0.01 mg/kg po, 4 hours): 99%
Na+/K+ (Wistar rats; [6]): 2.16
Increase in amount of K+ excreted (Wistar rats; 0.1 mg/kg po, 4 hours): -9%
Increase in amount of Na+ excreted (Wistar rats; 0.1 mg/kg po, 4 hours): 148%
Increase in amount of urine (Wistar rats; 0.1 mg/kg po, 4 hours): 105%
Na+/K+ (Wistar rats; [2]): 2.72
Amount of creatinine in serum ([1]; 0.01 mg/kg ip, 24 hours after glycerol; control 4.35 ± 0.23; **^1) p < 0.01 (Dunnett's test)): 2.00 ± 0.21 mg/dL
Amount of urea-nitrogen in serum ([1]; 0.01 mg/kg ip, 24 hours after glycerol; control 139.7 ± 10.2; marked ***^1)): 69.9 ± 8.4 mg/dL
Amount of creatinine in serum ([1]; 0.1 mg/kg ip, 24 hours after glycerol; control 4.35 ± 0.23; **^1) p < 0.01 (Dunnett's test)): 2.32 ± 0.16 mg/dL
Amount of urea-nitrogen in serum ([1]; 0.1 mg/kg ip, 24 hours after glycerol; control 139.7 ± 10.2; **^1) p < 0.01 (Dunnett's test)): 64.4 ± 4.5 mg/dL

CCCn1c(=O)c2[nH]c(C34CC5CC3CC(O)(C5)C4)nc2n(CCC)c1=O (stereo not drawn) [Compound 3, 8-(1-hydroxy-3-tricyclo[3.3.1.0^3,7]nonyl)-1,3-dipropylxanthine]
pKi (adenosine A1 receptor): 9.30
Increase in amount of K+ excreted (Wistar rats; 0.025 mg/kg po, 4 hours): 32%
Increase in amount of Na+ excreted (Wistar rats; 0.025 mg/kg po, 4 hours): 238%
Increase in amount of urine (Wistar rats; 0.025 mg/kg po, 4 hours): 324%
Na+/K+ (Wistar rats; 0.025 mg/kg po, 4 hours, control 1.00): 2.55
Increase in amount of K+ excreted (Wistar rats; 0.1 mg/kg po, 4 hours): 18%
Increase in amount of Na+ excreted (Wistar rats; 0.1 mg/kg po, 4 hours): 272%
Increase in amount of urine (Wistar rats; 0.1 mg/kg po, 4 hours): 356%
Na+/K+ (Wistar rats; [2]): 3.15
Amount of creatinine in serum ([1]; 0.03 mg/kg ip, 24 hours after glycerol, control 3.57 ± 0.21, ***p < 0.001): 1.64 ± 0.17 mg/dL
Amount of urea-nitrogen in serum ([1]; 0.03 mg/kg ip, 24 hours after glycerol, control 149.7 ± 7.0, ***p < 0.001): 49.0 ± 6.9 mg/dL

CCCn1c(=O)c2[nH]c([C@@]34C[C@H]5C[C@@H]3C[C@@H](C4)[C@H]5O)nc2n(CCC)c1=O [Compound 4, 8-(cis-9-hydroxy-3-tricyclo[3.3.1.0^3,7]nonyl)-1,3-dipropylxanthine]
pKi (adenosine A1 receptor): 9.51
Increase in amount of K+ excreted (Wistar rats; 0.01 mg/kg po, 4 hours): 43%
Increase in amount of Na+ excreted (Wistar rats; 0.01 mg/kg po, 4 hours): 167%
Increase in amount of urine (Wistar rats; 0.01 mg/kg po, 4 hours): 200%
Na+/K+ (Wistar rats; [6]): 1.86
Increase in amount of K+ excreted (Wistar rats; 1.6 mg/kg po, 4 hours): 35%
Increase in amount of Na+ excreted (Wistar rats; 1.6 mg/kg po, 4 hours): 180%
Increase in amount of urine (Wistar rats; 1.6 mg/kg po, 4 hours): 232%
Na+/K+ (Wistar rats; [3]): 2.07
Amount of creatinine in serum [1, 4]: 2.00 ± 0.17 mg/dL
Amount of urea-nitrogen in serum [1, 5]: 76.0 ± 8.8 mg/dL

CCCn1c(=O)c2[nH]c([C@]34C[C@@H]5[C@@H](O)[C@H](C3)[C@H]3[C@@H]5[C@H]34)nc2n(CCC)c1=O [Compound 5, 8-(Trans-9-hydroxy-3-tetracyclo[3.3.1.0^3,7 .0^6,8]-nonyl)-1,3-dipropylxanthine]
pKi (adenosine A1 receptor): 9.51
Increase in amount of K+ excreted (Wistar rats; 0.0025 mg/kg po, 4 hours): 8%
Increase in amount of Na+ excreted (Wistar rats; 0.0025 mg/kg po, 4 hours): 68%
Increase in amount of urine (Wistar rats; 0.0025 mg/kg po, 4 hours): 77%
Na+/K+ (Wistar rats; 0.0025 mg/kg po, 4 hours, control 1.00): 1.56
Increase in amount of K+ excreted (Wistar rats; 0.1 mg/kg po, 4 hours): 23%
Increase in amount of Na+ excreted (Wistar rats; 0.1 mg/kg po, 4 hours): 277%
Increase in amount of urine (Wistar rats; 0.1 mg/kg po, 4 hours): 256%
Na+/K+ (Wistar rats; [2]): 3.07
Amount of creatinine in serum ([1]; 0.01 mg/kg ip, 24 hours after glycerol, control 3.90 ± 0.24, ***p < 0.001): 2.18 ± 0.11 mg/dL
Amount of urea-nitrogen in serum ([1]; 0.01 mg/kg ip, 24 hours after glycerol, control 124.9 ± 7.5, ***p < 0.001): 61.3 ± 6.1 mg/dL

Cn1c(=O)c2[nH]cnc2n(C)c1=O [aminophylline, reference compound]
effect on increases in serum creatinine and serum urea-nitrogen [1]: only a weak inhibitory tendancy

NS(=O)(=O)c1cc(C(=O)O)c(NCc2ccco2)cc1Cl [furosemide, reference compound]
effect on increases in serum creatinine and serum urea-nitrogen [1]: a tendancy of deterioration
